Source: the CombiSolv-Exp solvation set (Vermeire and Green 2021)

Assay: solvent given as SMILES
[1] = in CCCCCCCCC=CCCCCCCCC(=O)OCC(COC(=O)CCCCCCCC=CCCCCCCCC)OC(=O)CCCCCCCC=CCCCCCCCC

SMILES: CCCCCCCCCCCCCCCCCCCCCCCCCCCC
- solvation free energy, 298 K (in CC(=O)N(C)C): -18.9 kcal/mol
- solvation free energy, 298 K (in CC(C)(C)O): -16.9 kcal/mol
- solvation free energy, 298 K (in CCC(C)=O): -17.1 kcal/mol
- solvation free energy, 298 K (in CCCCCO): -17 kcal/mol
- solvation free energy, 298 K (in CCCCO): -16.7 kcal/mol
- solvation free energy, 298 K (in CCCCOC(C)=O): -17.9 kcal/mol
- solvation free energy, 298 K (in CCCO): -16.4 kcal/mol
- solvation free energy, 298 K (in CN(C)C=O): -19 kcal/mol
- solvation free energy, 298 K (in Cc1ccc(C)cc1): -19.3 kcal/mol
- solvation free energy, 298 K (in Cc1cccc(C)c1): -19.2 kcal/mol
- solvation free energy, 298 K (in ClCCl): -18.6 kcal/mol
- solvation free energy, 298 K (in O): 5.92 kcal/mol

SMILES: FC(F)F
- solvation free energy, 298 K (in CCCCCCCC(=O)OCC(COC(=O)CCCCCCC)OC(=O)CCCCCCC): -0.46 kcal/mol
- solvation free energy, 298 K (in CCCCCCCCC): 0.06 kcal/mol
- solvation free energy, 298 K (in CCCCCCCCO): -0.21 kcal/mol
- solvation free energy, 298 K (in CN1CCCC1=O): -1.35 kcal/mol
- solvation free energy, 298 K (in CN(C)C=O): -0.86 kcal/mol
- solvation free energy, 298 K (in O): 0.7 kcal/mol

SMILES: Clc1cccc(Cl)c1-c1c(Cl)cccc1Cl
- solvation free energy, 298 K (in O): -2.17 kcal/mol

SMILES: O=C(OC1CCCCC1)c1ccccc1C(=O)OC1CCCCC1
- solvation free energy, 298 K (in O): -9.07 kcal/mol

SMILES: Oc1ccc(Br)cc1Br
- solvation free energy, 298 K (in O): -5.69 kcal/mol

SMILES: CC1=CCCCC1
- solvation free energy, 298 K (in O): 0.66 kcal/mol

SMILES: C=CC1(C)CCC(C(=C)C)CC1C(=C)C (centres undefined)
- solvation free energy, 298 K (in O): -0.42 kcal/mol

SMILES: COC(=O)c1ccc(Cl)c(Cl)c1
- solvation free energy, 298 K (in CN(C)C=O): -9.19 kcal/mol
- solvation free energy, 298 K (in O): -3.75 kcal/mol

SMILES: CCOP(=S)(OCC)Oc1nc(Cl)c(Cl)cc1Cl
- solvation free energy, 298 K [1]: -14.4 kcal/mol

SMILES: C=C1C=CC(C(C)C)CCC(C)=CCC1 (centres undefined)
- solvation free energy, 298 K (in O): 0.14 kcal/mol

SMILES: CCCCCC1CCCC1
- solvation free energy, 298 K (in O): 2.55 kcal/mol

SMILES: CCCCCCCCN
- solvation free energy, 298 K (in CCCCCCC): -6.96 kcal/mol
- solvation free energy, 298 K (in O): -3.73 kcal/mol

SMILES: CC(=O)C1CCCCC1
- solvation free energy, 298 K (in O): -3.9 kcal/mol

SMILES: Clc1ccc(-c2ccc(Cl)cc2)cc1
- solvation free energy, 298 K [1]: -10.9 kcal/mol
- solvation free energy, 298 K (in CCCCCCCCO): -10.7 kcal/mol
- solvation free energy, 298 K (in O): -2.91 kcal/mol

SMILES: CC(C)c1ccc2c(c1)CCC1C(C)(C)CCCC21C (centres undefined)
- solvation free energy, 298 K (in O): -0.37 kcal/mol

SMILES: OC1CCCCCCCCCCC1
- solvation free energy, 298 K (in O): -5.35 kcal/mol

SMILES: Clc1ccc(Cl)c(-c2cc(Cl)c(Cl)c(Cl)c2)c1
- solvation free energy, 298 K (in O): -3.61 kcal/mol

SMILES: CCOP(=S)(OCC)SCSCC
- solvation free energy, 298 K (in O): -4.37 kcal/mol

SMILES: CC(C(=O)O)c1ccc(N2CC=CC2)c(Cl)c1 (centres undefined)
- solvation free energy, 298 K (in O): -11.3 kcal/mol

SMILES: ClC=C(Cl)Cl
- solvation free energy, 298 K (in C1COCCO1): -4.91 kcal/mol
- solvation free energy, 298 K (in CC(=O)N(C)C): -4.8 kcal/mol
- solvation free energy, 298 K [1]: -4.37 kcal/mol
- solvation free energy, 298 K (in CCCCCCCCCC): -3.84 kcal/mol
- solvation free energy, 298 K (in CCCCCCCCO): -4.09 kcal/mol
- solvation free energy, 298 K (in CCCCN(C=O)CCCC): -4.62 kcal/mol
- solvation free energy, 298 K (in CNC(C)=O): -4.35 kcal/mol
- solvation free energy, 298 K (in O): -0.46 kcal/mol

SMILES: Clc1cc(Cl)c(-c2c(Cl)cccc2Cl)c(Cl)c1
- solvation free energy, 298 K (in O): -1.96 kcal/mol

SMILES: C#CCCCCCC
- solvation free energy, 298 K (in CN1CCCC1=O): -4.98 kcal/mol
- solvation free energy, 298 K (in CN(C)C=O): -4.99 kcal/mol
- solvation free energy, 298 K (in CS(C)=O): -4.42 kcal/mol
- solvation free energy, 298 K (in N#CCCCCC#N): -4.31 kcal/mol
- solvation free energy, 298 K (in NCCO): -3.17 kcal/mol
- solvation free energy, 298 K (in O): 0.71 kcal/mol

SMILES: N#CCCOCCC#N
- solvation free energy, 298 K (in CCCCCCC): -7.82 kcal/mol

SMILES: OCc1ccccc1
- solvation free energy, 298 K (in CCCCCCCCCCCCCCCC): -5.74 kcal/mol
- solvation free energy, 298 K (in N#Cc1ccccc1): -8 kcal/mol
- solvation free energy, 298 K (in O): -6.79 kcal/mol

SMILES: C#CCCCC
- solvation free energy, 298 K (in C1CCC2CCCCC2C1): -3.68 kcal/mol
- solvation free energy, 298 K (in C1CCC(C2CCCCC2)CC1): -3.65 kcal/mol
- solvation free energy, 298 K (in CN1CCCC1=O): -4.11 kcal/mol
- solvation free energy, 298 K (in CN(C)C=O): -3.94 kcal/mol
- solvation free energy, 298 K (in CS(C)=O): -3.55 kcal/mol
- solvation free energy, 298 K (in N#CCCCCC#N): -3.32 kcal/mol
- solvation free energy, 298 K (in NCCO): -2.4 kcal/mol
- solvation free energy, 298 K (in O): 0.29 kcal/mol
- solvation free energy, 298 K (in O=Cc1ccco1): -3.57 kcal/mol
- solvation free energy, 298 K (in OCc1ccco1): -3.31 kcal/mol
- solvation free energy, 298 K (in c1ccc2c(c1)CCCC2): -3.99 kcal/mol
- solvation free energy, 298 K (in c1ccc(C2CCCCC2)cc1): -3.88 kcal/mol

SMILES: CCNCc1ccc(C)cc1
- solvation free energy, 298 K (in O): -6.02 kcal/mol

SMILES: OCCCl
- solvation free energy, 298 K (in Brc1ccccc1): -4.8 kcal/mol
- solvation free energy, 298 K (in CCCCCCCCCCO): -5.73 kcal/mol
- solvation free energy, 298 K (in CCCCCCCCO): -5.87 kcal/mol
- solvation free energy, 298 K (in Cc1ccc(C)cc1): -4.77 kcal/mol
- solvation free energy, 298 K (in Cc1cccc(C)c1): -4.69 kcal/mol
- solvation free energy, 298 K (in Cc1ccccc1C): -4.74 kcal/mol
- solvation free energy, 298 K (in Clc1ccccc1): -4.62 kcal/mol
- solvation free energy, 298 K (in O): -6.28 kcal/mol

SMILES: c1ccc(CCc2ccccc2)cc1
- solvation free energy, 298 K (in CCCCCCCCO): -8.8 kcal/mol

SMILES: C=CC(=C)C
- solvation free energy, 298 K (in BrC(Br)C(Br)Br): -2.83 kcal/mol
- solvation free energy, 298 K (in Brc1cccc2ccccc12): -2.82 kcal/mol
- solvation free energy, 298 K (in C1=Cc2ccccc2C1): -3.1 kcal/mol
- solvation free energy, 298 K (in CC1COC(=O)O1): -2.45 kcal/mol
- solvation free energy, 298 K (in CC(=O)N(C)C): -2.89 kcal/mol
- solvation free energy, 298 K (in CC(=O)OCc1ccccc1): -2.93 kcal/mol
- solvation free energy, 298 K (in CC(=O)c1ccccc1): -2.93 kcal/mol
- solvation free energy, 298 K (in CC(C)CC(C)(C)C): -3.16 kcal/mol
- solvation free energy, 298 K (in CCC(C)=O): -3.27 kcal/mol
- solvation free energy, 298 K (in CCCCC#N): -3.06 kcal/mol
- solvation free energy, 298 K (in CCCCCC#N): -3.11 kcal/mol
- solvation free energy, 298 K (in CCCCCCC): -3.22 kcal/mol
- solvation free energy, 298 K (in CCCCCCCC): -3.18 kcal/mol
- solvation free energy, 298 K (in CCCCCCCCO): -2.81 kcal/mol
- solvation free energy, 298 K (in CCCCO): -2.89 kcal/mol
- solvation free energy, 298 K (in CCNC(C)=O): -2.81 kcal/mol
- solvation free energy, 298 K (in CCOC(C)=O): -3.29 kcal/mol
- solvation free energy, 298 K (in CN1CCCC1=O): -2.89 kcal/mol
- solvation free energy, 298 K (in CN(C)C=O): -2.88 kcal/mol
- solvation free energy, 298 K (in CN(C)P(=O)(N(C)C)N(C)C): -2.89 kcal/mol
- solvation free energy, 298 K (in CNC(C)=O): -2.74 kcal/mol
- solvation free energy, 298 K (in CNC=O): -2.44 kcal/mol
- solvation free energy, 298 K (in CS(C)=O): -2.38 kcal/mol
- solvation free energy, 298 K (in Cc1cccc2ccccc12): -2.94 kcal/mol
- solvation free energy, 298 K (in Cc1cccc(O)c1): -2.72 kcal/mol
- solvation free energy, 298 K (in ClC(Cl)(Cl)Cl): -3.49 kcal/mol
- solvation free energy, 298 K (in ClC(Cl)C(Cl)Cl): -3.21 kcal/mol
- solvation free energy, 298 K (in ClCCCl): -3.3 kcal/mol
- solvation free energy, 298 K (in Clc1cccc2ccccc12): -2.81 kcal/mol
- solvation free energy, 298 K (in N#CCCCC#N): -2.06 kcal/mol
- solvation free energy, 298 K (in N#CCCCCC#N): -2.35 kcal/mol
- solvation free energy, 298 K (in N#CCc1ccccc1): -2.7 kcal/mol
- solvation free energy, 298 K (in N#Cc1ccccc1): -3 kcal/mol
- solvation free energy, 298 K (in NCc1ccccc1): -2.85 kcal/mol
- solvation free energy, 298 K (in Nc1ccccc1): -2.56 kcal/mol
- solvation free energy, 298 K (in O): 0.68 kcal/mol
- solvation free energy, 298 K (in O=C1CCCCC1): -3.22 kcal/mol
- solvation free energy, 298 K (in O=C(O)C(Cl)Cl): -2.77 kcal/mol
- solvation free energy, 298 K (in OCCO): -1.12 kcal/mol
- solvation free energy, 298 K (in OCc1ccccc1): -2.56 kcal/mol
- solvation free energy, 298 K (in c1ccc2ncccc2c1): -2.82 kcal/mol

SMILES: CCCCCC=CCC=CCCCCCCCC(=O)OC
- solvation free energy, 298 K (in O): -2.48 kcal/mol

SMILES: CCCC(=O)CC(=O)CCC
- solvation free energy, 298 K (in O): -4.33 kcal/mol

SMILES: C=C1C=CC2(C(C)C)CC12 (centres undefined)
- solvation free energy, 298 K (in O): -0.12 kcal/mol
